Experimental data as given in PMC8158703, “The Glitazone Class of Drugs as Carbonic Anhydrase Inhibitors—A Spin-Off Discovery from Fragment Screening” (Molecules, 2021).
Structures can show the parent of a compound that is named as a salt.

Legend:
[1] = molecular target: T1, hCA IX (Homo sapiens, UniProt Q16790); assay: Stopped flow CO2 hydrase assay; assay type: biochemical; conditions: mean from three assays, errors ±10%
T1 construct: made in house
Method: (§1) In addition to the ubiquitous hCA II, all other catalytically active hCA enzymes (I, IV, VA, VB, VI, VII, IX, XII, XIII and XIV) were assessed, providing a comprehensive profile of CA enzyme inhibition, Table 2. […] Different CAs have different expression profiles and cell locations. […] A comparison between hCA VII and hCA II has identified 7 residue differences (S65A, Q67N, D69E, K91I, A135V, S136Q, S204L) among the 23 residues within the active site cavity.
(§2) An Applied Photophysics stopped-flow instrument was used for assaying the inhibition of the CA catalysed CO2 hydration reaction. […] The uncatalyzed rates were determined in the same manner and subtracted from the total observed rates. […] Inhibitor and enzyme solutions were preincubated together for 15 min at room temperature prior to assay to allow for the formation of the enzyme inhibitor complex. The inhibition constants were obtained by nonlinear least squares methods using PRISM 3 (GraphPad Software Inc, San Diego, CA, USA). […] The catalytic activity (in the absence of inhibitors) of the different enzymes was calculated from Lineweaver–Burk plots and represent the mean from at least three different determinations. […] Enzymes used here were recombinant ones, prepared and purified as described earlier.

[2] = molecular target: T2, hCA II (Homo sapiens, UniProt P00918); assay: Stopped flow CO2 hydrase assay; assay type: biochemical; conditions: mean from three assays, errors ±10%
T2 construct: made in house
Method: as §1, §2

[3] = molecular target: T3, hCA IV (Homo sapiens, UniProt P22748); assay: Stopped flow CO2 hydrase assay; assay type: biochemical; conditions: mean from three assays, errors ±10%
T3 construct: made in house
T3 sequence (P22748 19-312): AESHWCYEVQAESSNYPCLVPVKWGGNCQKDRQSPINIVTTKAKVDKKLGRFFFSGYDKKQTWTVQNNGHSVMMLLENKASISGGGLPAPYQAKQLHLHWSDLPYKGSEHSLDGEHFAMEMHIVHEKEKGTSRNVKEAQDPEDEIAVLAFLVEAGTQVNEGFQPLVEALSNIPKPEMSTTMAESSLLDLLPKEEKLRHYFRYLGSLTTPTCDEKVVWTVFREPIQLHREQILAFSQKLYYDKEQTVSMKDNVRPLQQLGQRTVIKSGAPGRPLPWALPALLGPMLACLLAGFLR
Method: as §1, §2

[4] = molecular target: T4, hCA VII (Homo sapiens, UniProt P43166); assay: Stopped flow CO2 hydrase assay; assay type: biochemical; conditions: mean from three assays, errors ±10%
T4 construct: made in house
T4 sequence (P43166 whole entry): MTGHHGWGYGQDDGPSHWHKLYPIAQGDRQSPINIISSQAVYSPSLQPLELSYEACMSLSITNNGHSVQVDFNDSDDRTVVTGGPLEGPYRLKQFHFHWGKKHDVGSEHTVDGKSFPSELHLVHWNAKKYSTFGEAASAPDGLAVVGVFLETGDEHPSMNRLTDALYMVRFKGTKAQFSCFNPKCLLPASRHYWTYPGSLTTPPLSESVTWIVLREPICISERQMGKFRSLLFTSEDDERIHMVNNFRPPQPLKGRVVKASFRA
Method: as §1, §2

[5] = molecular target: T5, hCA I (Homo sapiens, UniProt P00915); assay: Stopped flow CO2 hydrase assay; assay type: biochemical; conditions: mean from three assays, errors ±10%
T5 construct: made in house
T5 sequence (P00915 whole entry): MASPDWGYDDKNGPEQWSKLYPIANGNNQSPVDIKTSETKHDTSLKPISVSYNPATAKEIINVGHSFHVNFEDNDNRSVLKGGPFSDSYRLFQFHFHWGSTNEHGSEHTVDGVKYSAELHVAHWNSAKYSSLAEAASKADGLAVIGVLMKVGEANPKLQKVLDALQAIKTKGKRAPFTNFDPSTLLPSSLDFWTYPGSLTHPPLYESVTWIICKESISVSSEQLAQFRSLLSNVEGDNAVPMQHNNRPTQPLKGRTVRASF
Method: as §1, §2

[6] = molecular target: T6, hCA VI (Homo sapiens, UniProt P23280); assay: Stopped flow CO2 hydrase assay; assay type: biochemical; conditions: mean from three assays, errors ±10%
T6 construct: made in house
T6 sequence (P23280 18-308): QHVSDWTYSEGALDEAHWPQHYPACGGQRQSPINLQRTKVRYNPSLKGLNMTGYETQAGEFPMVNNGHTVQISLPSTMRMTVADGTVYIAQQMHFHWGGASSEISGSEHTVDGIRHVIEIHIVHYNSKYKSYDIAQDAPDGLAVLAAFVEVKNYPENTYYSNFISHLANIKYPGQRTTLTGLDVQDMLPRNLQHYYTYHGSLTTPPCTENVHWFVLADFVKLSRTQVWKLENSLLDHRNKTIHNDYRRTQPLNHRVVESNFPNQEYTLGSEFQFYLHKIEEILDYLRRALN
Method: (§3) CA enzyme inhibition data was determined by measuring the CA-catalysed hydration of CO2 in the presence of 11–13. In addition to the ubiquitous hCA II, all other catalytically active hCA enzymes (I, IV, VA, VB, VI, VII, IX, XII, XIII and XIV) were assessed, providing a comprehensive profile of CA enzyme inhibition, Table 2. […]. Different CAs have different expression profiles and cell locations. […] A comparison between hCA VII and hCA II has identified 7 residue differences (S65A, Q67N, D69E, K91I, A135V, S136Q, S204L) among the 23 residues within the active site cavity. […] Here, we propose that this further extends to the minimal differences in observed active site compound binding strength between these isozymes. […]. Furthermore, they are considered a validated target for antiobesity drug development, in which they have been proposed to have an involvement in insulin secretion, however this mechanism is not yet fully understood. […]. The appreciable inhibition of the glitazones for the different CA isozymes highlights the potential for CA-mediated off-target effects of these drugs when used clinically, and given the reported polypharmacology observed for these compounds, this may provide an avenue for further understanding of their mechanism of action.
(§4) An Applied Photophysics stopped-flow instrument was used for assaying the inhibition of the CA catalysed CO2 hydration reaction. Phenol red (0.2 mM) was used as indicator, monitored at the absorbance maximum of 557 nm. Reactions were carried out in a HEPES (10 mM, pH 7.4) buffer and NaClO4 (10 mM), for maintaining the ionic strength constant, the ClO4^- anion is not inhibitory against most CA isoforms at 25 °C [62]. […]. Inhibitors were tested in the concentration range of 0.01 nM–100 μM, and at least six traces of the initial 5–10% of the reaction have been used for determining the initial velocity. The uncatalyzed rates were determined in the same manner and subtracted from the total observed rates. Stock solutions of inhibitor (1 mM) were prepared in distilled, deionized water with 10–20% (v/v) DMSO (which is not inhibitory at these concentrations), and dilutions were performed thereafter with the assay buffer. Inhibitor and enzyme solutions were preincubated together for 15 min at room temperature prior to assay to allow for the formation of the enzyme inhibitor complex. The inhibition constants were obtained by nonlinear least squares methods using PRISM 3 (GraphPad Software Inc, San Diego, CA, USA). […]. The catalytic activity (in the absence of inhibitors) of the different enzymes was calculated from Lineweaver–Burk plots and represent the mean from at least three different determinations. Enzyme concentrations in the assay system were in the range of 3.8–9.5 nM. Enzymes used here were recombinant ones, prepared and purified as described earlier.

[7] = molecular target: T7, hCA XIV (Homo sapiens, UniProt Q9ULX7); assay: Stopped flow CO2 hydrase assay; assay type: biochemical; conditions: mean from three assays, errors ±10%
T7 construct: made in house
T7 sequence (Q9ULX7 16-337): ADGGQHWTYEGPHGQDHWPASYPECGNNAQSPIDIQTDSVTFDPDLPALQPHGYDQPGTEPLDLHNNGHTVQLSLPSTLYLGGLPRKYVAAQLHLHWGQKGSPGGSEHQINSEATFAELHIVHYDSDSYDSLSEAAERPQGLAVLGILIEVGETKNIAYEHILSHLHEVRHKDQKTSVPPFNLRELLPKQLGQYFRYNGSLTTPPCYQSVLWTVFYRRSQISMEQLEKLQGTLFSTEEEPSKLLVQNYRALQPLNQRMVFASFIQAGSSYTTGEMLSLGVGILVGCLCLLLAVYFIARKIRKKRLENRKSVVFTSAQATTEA
Method: as §3, §4

[8] = molecular target: T8, hCA VA (Homo sapiens, UniProt P35218); assay: Stopped flow CO2 hydrase assay; assay type: biochemical; conditions: mean from three assays, errors ±10%
T8 construct: made in house
T8 sequence (P35218 39-305): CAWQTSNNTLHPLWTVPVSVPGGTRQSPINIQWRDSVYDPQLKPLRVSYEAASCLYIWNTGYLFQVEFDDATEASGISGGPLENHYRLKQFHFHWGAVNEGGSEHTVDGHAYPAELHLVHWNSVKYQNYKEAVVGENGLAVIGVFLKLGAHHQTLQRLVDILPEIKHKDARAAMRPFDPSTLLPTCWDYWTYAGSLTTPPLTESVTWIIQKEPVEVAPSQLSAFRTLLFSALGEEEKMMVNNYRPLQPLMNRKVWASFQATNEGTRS
Method: as §3, §4

[9] = molecular target: T9, hCA XIII (Homo sapiens, UniProt Q8N1Q1); assay: Stopped flow CO2 hydrase assay; assay type: biochemical; conditions: mean from three assays, errors ±10%
T9 construct: made in house
T9 sequence (Q8N1Q1 whole entry): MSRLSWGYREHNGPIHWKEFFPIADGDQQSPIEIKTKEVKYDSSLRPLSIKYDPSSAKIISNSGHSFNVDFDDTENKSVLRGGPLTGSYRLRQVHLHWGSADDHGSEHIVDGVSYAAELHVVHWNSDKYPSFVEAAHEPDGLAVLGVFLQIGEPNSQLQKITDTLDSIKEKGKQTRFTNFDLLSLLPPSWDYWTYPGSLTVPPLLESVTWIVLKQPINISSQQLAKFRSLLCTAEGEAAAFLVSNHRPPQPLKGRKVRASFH
Method: as §3, §4

[10] = molecular target: T10, hCA VB (Homo sapiens, UniProt Q9Y2D0); assay: Stopped flow CO2 hydrase assay; assay type: biochemical; conditions: mean from three assays, errors ±10%
T10 construct: made in house
T10 sequence (Q9Y2D0 34-317): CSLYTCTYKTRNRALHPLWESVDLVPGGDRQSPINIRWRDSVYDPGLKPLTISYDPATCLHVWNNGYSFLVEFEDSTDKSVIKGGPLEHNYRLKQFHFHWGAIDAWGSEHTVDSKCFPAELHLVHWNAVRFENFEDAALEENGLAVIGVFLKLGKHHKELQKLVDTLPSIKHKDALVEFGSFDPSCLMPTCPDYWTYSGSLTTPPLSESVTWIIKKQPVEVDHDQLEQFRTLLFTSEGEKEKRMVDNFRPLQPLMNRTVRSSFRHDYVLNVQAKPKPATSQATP
Method: as §3, §4

[11] = molecular target: CA II; conditions: CA II hit fragments, SPR; cited from earlier work
[12] = molecular target: T11, hCA XII (Homo sapiens, UniProt O43570); assay: Stopped flow CO2 hydrase assay; assay type: biochemical; conditions: mean from three assays, errors ±10%
T11 construct: made in house
T11 sequence (O43570 25-354): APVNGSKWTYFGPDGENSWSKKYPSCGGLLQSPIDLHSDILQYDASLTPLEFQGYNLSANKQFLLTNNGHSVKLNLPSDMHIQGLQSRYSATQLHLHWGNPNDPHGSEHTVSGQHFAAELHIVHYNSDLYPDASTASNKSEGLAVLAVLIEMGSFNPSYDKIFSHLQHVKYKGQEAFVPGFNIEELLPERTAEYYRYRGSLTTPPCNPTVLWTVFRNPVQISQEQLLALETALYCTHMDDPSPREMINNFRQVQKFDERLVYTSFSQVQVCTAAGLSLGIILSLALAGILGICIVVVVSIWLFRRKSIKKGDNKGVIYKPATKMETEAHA
Method: as §1, §2

Ki [1] | Ki [2] | Ki [3] | Ki [5] | Ki [6] | Ki [7] | Ki [8] | Ki [9] | Ki [10] | Structure (SMILES) | Kd [11] | other results
0.75 µM | 7.1 µM | 92.1 µM | 39.6 µM | 19.8 µM | 6.6 µM | 5.3 µM | 21.5 µM | 36.2 µM | CCc1ccc(CCOc2ccc(CC3SC(=O)NC3=O)cc2)nc1 (centres unmarked) [Compound 13, 5-[[4-[2-(5-ethyl-2-pyridinyl)ethoxy]phenyl]methyl]-2,4-thiazolidinedione monohydrochloride] | – | Ki [4]: 4.9 µM
– | – | – | – | – | – | – | – | – | Clc1ccccc1OCc1nn[nH]n1 [Compound 5] | 631 µM | –
– | – | – | – | – | – | – | – | – | O=C(O)Cc1cccc(OCc2ccccc2)c1 [Compound 3] | 1080 µM | –
– | – | – | – | – | – | – | – | – | O=C(CSc1nnc[nH]1)c1ccccc1 [Compound 7] | 194 µM | –
– | – | – | – | – | – | – | – | – | Cc1ccnc(S(N)(=O)=O)n1 [Compound 4] | 1.4 µM | –
– | – | – | – | – | – | – | – | – | Clc1ccc(OCc2nn[nH]n2)cc1 [Compound 6] | 709 µM | –
– | – | – | – | – | – | – | – | – | C/C(=C\C(=O)O)c1ccc(Cl)cc1 [Compound 1] | 905 µM | –
2.5 µM | 0.75 µM | 58.9 µM | 16.3 µM | 5.9 µM | 2.3 µM | 8.2 µM | 7.4 µM | 40.9 µM | CN(CCOc1ccc(CC2SC(=O)NC2=O)cc1)c1ccccn1 (centres unmarked) [Compound 12, 5-[[4-[2-(methyl-2-pyridinylamino)ethoxy]phenyl]methyl]-2,4-thiazolidinedione] | – | Ki [12]: 3.7 µM; Ki [4]: 6.1 µM
1.3 µM | 1.3 µM | > 100 µM | 57.2 µM | 46.7 µM | 16.8 µM | 12.4 µM | 32.3 µM | 28.9 µM | Cc1c(C)c2c(c(C)c1O)CCC(C)(COc1ccc(CC3SC(=O)NC3=O)cc1)O2 (racemic) [Compound 11, (±)-5-[4-[(6-Hydroxy-2,5,7,8-tetramethylchroman-2-yl)methoxy]benzyl]-2,4-thiazolidinedione] | – | Ki [12]: 0.92 µM
– | – | – | – | – | – | – | – | – | O=C(O)c1cccc(Oc2ccccc2)c1 [Compound 2] | 1280 µM | –
